In patent US10045983B2, “Heteroaryl pyridone and aza-pyrodine compounds” (Genentech, Inc., priority 2011, dated 2018):

Experiment: CD69 Whole Blood Assay (CD69 Hu Blood FACS)
Format: cell-based, human
Settings: Lymphocyte; human whole blood, anti-IgM activated B lymphocytes, FACS; IC70; Table 2 (unit inferred); read-out: CD69 Hu Blood FACS (IC70)
Procedure, shortened: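 Compounds tested for blocking B-cell CD69 induction by flow cytometry in human whole blood, with activation via anti-human IgM goat F(ab′)2 crosslinking of surface IgM.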

With `C[C@H]1CN(C2COC2)CCN1c1ccc(Nc2cc(-c3ccnc(-n4ncc5c6c(sc5c4=O)CCCC6)c3CO)cn(C)c2=O)nc1` [Example 191, 5-[3-(Hydroxymethyl)-4-[1-methyl-5-({5-[(2S)-2-methyl-4-(oxetan-3-yl)pipera-zin-1-yl]pyridin-2-yl}amino)-6-oxo-1,6-dihydropyridin-3-yl]pyridin-2-yl]-8-thia-4,5-diazatricyclo[7.4.0.0^2,7]trideca-1(9),2(7),3-trien-6-one] as the compound, how does the IC70 read?
Its IC70 is 43.5 nM.

Which IC70 does the source give for `C[C@H]1CN(C2COC2)CCN1c1ccc(Nc2cc(-c3ccnc(-n4ncc5c6n(cc5c4=O)CCCC6)c3CO)cn(C)c2=O)nc1` [Example 192, 3-[3-(hydroxymethyl)-4-[1-methyl-5-[[5-[(2S)-2-methyl-4-(oxetan-3-yl)piperazin-1-yl]-2-pyridyl]amino]-6-oxo-3-pyridyl]-2-pyridyl]-7,8,9,10-tetrahydropyridazino[4,5-a]indolizin-4-one] here?
The IC70 was 1100 nM.

For `C[C@H]1CN(C2COC2)CCN1c1ccc(Nc2cc(-c3ccnc(-n4ncc5c(cc6n5CCCC6)c4=O)c3CO)cn(C)c2=O)nc1` [Example 193, 2-[3-(hydroxymethyl)-4-[1-methyl-5-[[5-[(2S)-2-methyl-4-(oxetan-3-yl)piperazin-1-yl]-2-pyridyl]amino]-6-oxo-3-pyridyl]-2-pyridyl]-6,7,8,9-tetrahydropyridazino[4,5-b]indolizin-1-one], which IC70 is on record?
Its IC70 is 99.5 nM.

Which IC70 does the source give for `Cn1cc(-c2ccnc(-n3ncc4c5c(sc4c3=O)CCCC5)c2CO)cc(Nc2cnccn2)c1=O` [Example 194, 3-[3-(hydroxymethyl)-4-[1-methyl-6-oxo-5-(pyrazin-2-ylamino)-3-pyridyl]-2-pyridyl]-6,7,8,9-tetrahydrobenzothiopheno[2,3-d]pyridazin-4-one] here?
Its IC70 is 1200 nM.

Which IC70 does the source give for `CN1CCn2nc(Nc3cc(-c4ccnc(-n5ccn6c7c(cc6c5=O)CCCC7)c4CO)cn(C)c3=O)cc2C1` [Example 195, 2-[3-(hydroxymethyl)-4-[1-methyl-5-[(5-methyl-6,7-dihydro-4H-pyrazolo[1,5-a]pyrazin-2-yl)amino]-6-oxo-3-pyridyl]-2-pyridyl]-6,7,8,9-tetrahydropyrazino[1,2-a]indol-1-one] here?
The IC70 was 101 nM.

For `Cn1cc(-c2ccnc(N3CCn4c(cc5c4CCCC5)C3=O)c2CO)nc(Nc2ccc(N3CCN(C4COC4)CC3)nc2)c1=O` [Example 197, 2-[3-(hydroxymethyl)-4-[4-methyl-6-[[6-[4-(oxetan-3-yl)piperazin-1-yl]-3-pyridyl]amino]-5-oxo-pyrazin-2-yl]-2-pyridyl]-3,4,6,7,8,9-hexahydropyrazino[1,2-a]indol-1-one], which IC70 is on record?
The IC70 was 2300 nM.

For `Cn1cc(-c2ccnc(-n3ncc4c5n(cc4c3=O)CCCC5)c2CO)cc(Nc2ccc(N3CCN(C4COC4)CC3)cn2)c1=O` [Example 198, 3-[3-(hydroxymethyl)-4-[1-methyl-5-[[5-[4-(oxetan-3-yl)piperazin-1-yl]-2-pyridyl]amino]-6-oxo-3-pyridyl]-2-pyridyl]-7,8,9,10-tetrahydropyridazino[4,5-a]indolizin-4-one], which IC70 is on record?
The IC70 was 6000 nM.

Which IC70 does the source give for `Cn1cc(-c2ccnc(N3CCn4c(cc5c4CC(C)(C)C5)C3=O)c2CO)cc(Nc2ccn3ccnc3n2)c1=O` [Example 199, 3-[3-(hydroxymethyl)-4-[5-(imidazo[1,2-a]pyrimidin-7-ylamino)-1-methyl-6-oxo-3-pyridyl]-2-pyridyl]-7,7-dimethyl-1,2,6,8-tetrahydrocyclopenta[3,4]pyrrolo[3,5-b]pyrazin-4-one] here?
The IC70 was 934 nM.

For `Cn1cc(-c2ccnc(N3CCn4c(cc5c4CCCC5)C3=O)c2CO)cc(Nc2ccc(C3=CCN(C4COC4)CC3)cn2)c1=O` [Example 200, 2-[3-(hydroxymethyl)-4-[1-methyl-5-[[5-[1-(oxetan-3-yl)-3,6-dihydro-2H-pyridin-4-yl]-2-pyridyl]amino]-6-oxo-3-pyridyl]-2-pyridyl]-3,4,6,7,8,9-hexahydropyrazino[1,2-a]indol-1-one], which IC70 is on record?
The IC70 was 636 nM.

Which IC70 does the source give for `Cn1cc(-c2ccnc(N3CCn4c(cc5c4CC(C)(C)C5)C3=O)c2CO)nc(Nc2ccc3nccn3c2)c1=O` [Example 201, 3-[3-(hydroxymethyl)-4-[6-(imidazo[1,2-a]pyridin-6-ylamino)-4-methyl-5-oxo-pyrazin-2-yl]-2-pyridyl]-7,7-dimethyl-1,2,6,8-tetrahydrocyclopenta[3,4]pyrrolo[3,5-b]pyrazin-4-one] here?
Its IC70 is 3300 nM.

With `CN1CCn2nc(Nc3cc(-c4ccnc(-n5ncc6c7n(cc6c5=O)CCCC7)c4CO)cn(C)c3=O)cc2C1` [Example 202, 3-[3-(hydroxymethyl)-4-[1-methyl-5-[(5-methyl-6,7-dihydro-4H-pyrazolo[1,5-a]pyrazin-2-yl)amino]-6-oxo-3-pyridyl]-2-pyridyl]-7,8,9,10-tetrahydropyridazino[4,5-a]indolizin-4-one] as the compound, how does the IC70 read?
The IC70 was 7300 nM.

Which IC70 does the source give for `CN1CCc2nc(Nc3cc(-c4ccnc(N5CCn6c(cc7c6CC(C)(C)C7)C5=O)c4CO)cn(C)c3=O)sc2C1` [Example 203, 3-[3-(hydroxymethyl)-4-[1-methyl-5-[(5-methyl-6,7-dihydro-4H-thiazolo[5,4-c]pyridin-2-yl)amino]-6-oxo-3-pyridyl]-2-pyridyl]-7,7-dimethyl-1,2,6,8-tetrahydrocyclopenta[3,4]pyrrolo[3,5-b]pyrazin-4-one] here?
The IC70 was 60.5 nM.

With `CN1CCn2nc(Nc3cc(-c4ccnc(-n5ncc6c(cc7n6CCCC7)c5=O)c4CO)cn(C)c3=O)cc2C1` [Example 204, 2-[3-(hydroxymethyl)-4-[1-methyl-5-[(5-methyl-6,7-dihydro-4H-pyrazolo[1,5-a]pyrazin-2-yl)amino]-6-oxo-3-pyridyl]-2-pyridyl]-6,7,8,9-tetrahydropyridazino[4,5-b]indolizin-1-one] as the compound, how does the IC70 read?
The IC70 was 436 nM.

For `Cn1cc(-c2ccnc(N3CCn4c(cc5c4CCCC5)C3=O)c2CO)cc(Nc2cc3n(n2)CCNC3)c1=O` [Example 205, 2-[3-(hydroxymethyl)-4-[1-methyl-6-oxo-5-(4,5,6,7-tetrahydropyrazolo[1,5-a]pyrazin-2-ylamino)-3-pyridyl]-2-pyridyl]-3,4,6,7,8,9-hexahydropyrazino[1,2-a]indol-1-one], which IC70 is on record?
Its IC70 is 114 nM.

For `CN1CC(Oc2ccc(Nc3cc(-c4ccnc(N5CCn6c(cc7c6CCCC7)C5=O)c4CO)cn(C)c3=O)nc2)C1` [Example 206, 2-[3-(hydroxymethyl)-4-[1-methyl-5-[[5-(1-methylazetidin-3-yl)oxy-2-pyridyl]amino]-6-oxo-3-pyridyl]-2-pyridyl]-3,4,6,7,8,9-hexahydropyrazino[1,2-a]indol-1-one], which IC70 is on record?
The IC70 was 150 nM.

Which IC70 does the source give for `CN1CC(Oc2ccc(Nc3cc(-c4ccnc(N5CCn6c(cc7c6CC(C)(C)C7)C5=O)c4CO)cn(C)c3=O)nc2)C1` [Example 207, 3-[3-(hydroxymethyl)-4-[1-methyl-5-[[5-(1-methylazetidin-3-yl)oxy-2-pyridyl]amino]-6-oxo-3-pyridyl]]-7,7-dimethyl-1,2,6,8-tetrahydrocyclopenta[3,4]pyrrolo[3,5-b]pyrazin-4-one] here?
Its IC70 is 41.4 nM.

With `CCN1CCn2nc(Nc3cc(-c4ccnc(N5CCc6c(cc7n6CCCC7)C5=O)c4CO)cn(C)c3=O)cc2C1` [Example 208, 2-[4-[5-[(5-ethyl-6,7-dihydro-4H-pyrazolo[1,5-a]pyrazin-2-yl)amino]-1-methyl-6-oxo-3-pyridyl]-3-(hydroxymethyl)-2-pyridyl]-3,4,6,7,8,9-hexahydropyrido[3,4-b]indolizin-1-one] as the compound, how does the IC70 read?
The IC70 was 580 nM.

With `CC(=O)N1CCn2nc(Nc3cc(-c4ccnc(N5CCn6c(cc7c6CCCC7)C5=O)c4CO)cn(C)c3=O)cc2C1` [Example 209, 2-[4-[5-[(5-acetyl-6,7-dihydro-4H-pyrazolo[1,5-a]pyrazin-2-yl)amino]-1-methyl-6-oxo-3-pyridyl]-3-(hydroxymethyl)-2-pyridyl]-3,4,6,7,8,9-hexahydropyrazino[1,2-a]indol-1-one] as the compound, how does the IC70 read?
The IC70 was 116 nM.

Which IC70 does the source give for `C[C@H]1CN(C2COC2)CCN1c1ccc(Nc2cc(-c3ccnc(N4CCn5c(cc6c5CC(C)(C)C6)C4=O)c3C(N)=O)cn(C)c2=O)nc1` [Example 210, 2-(7,7-dimethyl-4-oxo-1,2,6,8-tetrahydrocyclopenta[3,4]pyrrolo[3,5-b]pyrazin-3-yl)-4-[1-methyl-5-[[5-[(2S)-2-methyl-4-(oxetan-3-yl)piperazin-1-yl]-2-pyridyl]amino]-6-oxo-3-pyridyl]pyridine-3-carboxamide] here?
Its IC70 is 914 nM.

With `CNC(=O)c1c(-c2cc(Nc3ccc(N4CCN(C5COC5)C[C@@H]4C)cn3)c(=O)n(C)c2)ccnc1N1CCn2c(cc3c2CC(C)(C)C3)C1=O` [Example 211, 2-(7,7-dimethyl-4-oxo-1,2,6,8-tetrahydrocyclopenta[3,4]pyrrolo[3,5-b]pyrazin-3-yl)-N-methyl-4-[1-methyl-5-[[5-[(2S)-2-methyl-4-(oxetan-3-yl)piperazin-1-yl]-2-pyridyl]amino]-6-oxo-3-pyridyl]pyridine-3-carboxamide] as the compound, how does the IC70 read?
The IC70 was 2100 nM.

With `CC(=O)N1CCn2nc(Nc3cc(-c4ccnc(N5CCn6c(cc7c6CC(C)(C)C7)C5=O)c4CO)cn(C)c3=O)cc2C1` [Example 212, 3-[4-[5-[(5-acetyl-6,7-dihydro-4H-pyrazolo[1,5-a]pyrazin-2-yl)amino]-1-methyl-6-oxo-3-pyridyl]-3-(hydroxymethyl)-2-pyridyl]-7,7-dimethyl-1,2,6,8-tetrahydrocyclopenta[3,4]pyrrolo[3,5-b]pyrazin-4-one] as the compound, how does the IC70 read?
The IC70 was 15.2 nM.

With `Cc1nccc(Nc2cc(-c3ccnc(N4CCn5c6c(c(F)c5C4=O)CCCC6)c3CO)cn(C)c2=O)n1` [Example 213, 10-fluoro-2-[3-(hydroxymethyl)-4-[1-methyl-5-[(2-methylpyrimidin-4-yl)amino]-6-oxo-3-pyridyl]-2-pyridyl]-3,4,6,7,8,9-hexahydropyrazino[1,2-a]indol-1-one] as the compound, how does the IC70 read?
The IC70 was 620 nM.

Which IC70 does the source give for `Cn1cc(-c2ccnc(N3CCn4c(cc5c4CC(C)(C)C5)C3=O)c2CO)cc(Nc2nc3c(s2)COCC3)c1=O` [Example 214, 3-[4-[5-(6,7-dihydro-4H-pyrano[4,3-d]thiazol-2-ylamino)-1-methyl-6-oxo-3-pyridyl]-3-(hydroxymethyl)-2-pyridyl]-7,7-dimethyl-1,2,6,8-tetrahydrocyclopenta[3,4]pyrrolo[3,5-b]pyrazin-4-one] here?
Its IC70 is 124 nM.
